Measurements from patent US20230393140A1, “BINDING ASSAYS INVOLVING A PLURALITY OF SYNTHETIC COMPOUNDS, TARGETS, AND COUNTER TARGETS” (SRI International, priority 2020, published 2023).
Numbered stars: 1 amine (or outer) side, 2 acyl side, 3 side chain; on linkers, the order of the positions; unused ones are H or OH. Square brackets hold non-standard residues; d marks the D form. Peptide text beside a SMILES is read from it. * marks the point of attachment. 5FAM = O=C1OC2(c3ccc(O)cc3Oc3cc(O)ccc32)c2ccc(C(=O)*)cc21; NHCH2C6H4(4-CH2CONH2) = NC(=O)Cc1ccc(CN*)cc1; X1 = O=C(Cc1ccc(CN[*:1])cc1)[*:2]

Legend:
ASGPR = target: T1, ASGPR (Homo sapiens, UniProt P07306); experiment: MST binding affinity of resynthesized NNP hits to ASGPR; details: read-out: KD of ASGPR hits by MST
T1 construct: purchased R&D Systems, Inc. 4394-AS
T1 sequence (P07306 1-291): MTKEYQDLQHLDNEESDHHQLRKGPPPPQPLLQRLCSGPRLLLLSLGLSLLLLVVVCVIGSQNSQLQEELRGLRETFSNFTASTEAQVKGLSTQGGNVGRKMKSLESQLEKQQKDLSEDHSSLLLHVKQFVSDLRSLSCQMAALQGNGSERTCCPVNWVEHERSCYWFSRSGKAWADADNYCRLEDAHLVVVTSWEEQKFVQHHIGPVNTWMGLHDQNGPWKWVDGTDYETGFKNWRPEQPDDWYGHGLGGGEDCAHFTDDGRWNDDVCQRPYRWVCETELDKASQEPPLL
Description: (§1) Hit binding affinity to various targets were determined using Microscale Thermophoresis (MST). MST experiments were performed on a Monolith NT.115pico (NanoTemper Technologies GmbH, Munich, Germany). Measurements were performed at room temperature, in triplicate with incubation periods of 15, 30 and 45 minutes. […] Targets were labeled using Nanotemper Monolith 2nd Generation Protein Labeling Kits. RED-MALEIMIDE (Maleimide-647-dye) labeling kit was used for K-Ras and RED-NHS (NHS-647-dye) labeling kit was used for IL-6, IL-6R, TNFα and ASGPR. The buffer for the ASGPR contained 20 mM HEPES pH 7.4, 150 mM NaCl, 10 mM MgCl2, 2 mM CaCl2, 0.05% Pluronic F-127, and 1 mM DTT; for IL-6 contained 20 mM HEPES pH 7.4, 150 mM KCl, 10 mM MgCl2, and 0.1% Pluronic F-127; for the soluble IL-6 receptor 20 mM HEPES pH 7.4, 150 mM NaCl, 10 mM MgCl2, and 0.05% Tween-20; for K-Ras 20 mM HEPES pH 7.4, 150 mM NaCl, 10 mM MgCl2, 0.05% Tween-20 and 1 mM DTT; for TNFα 10 mM HEPES pH 7.4, 150 mM NaCl, 10 mM MgCl2, 0.05% Polysorbate-20. Triplicate data was analyzed using MO.AffinityAnalysis software (NanoTemper Technologies GmbH).

[1] = system: HepG2 cells (high ASGPR expressing); experiment: ASGPR uptake assay, flow cytometry, HepG2; assay type: cell-based, human; details: for Internalization compared with positive control GalNAc: HepG2, flow cytometry; for Internalization (cell uptake) in HepG2: fluorescein-labeled compounds, flow cytometry, 2 hours
Description: The HEK293T (human embryonic kidney cells) and human hepatoma HepG2 cells were grown according to the protocols provided by the American Type Culture Collection (ATCC). When cells reached cell were seeded at ˜1.5×10^5 cells/well in 24-well culture plate for the uptake assay. After at least 16 hours of culture to allow cell attach and equilibrate, the compound treatment was set up for the uptake assay.
The fluorescein-labeled NNPs or fluorescein-labeled N-acetylgalactosamine (GalNAc) recognizing ASGRPR were added to wells at indicated concentrations and incubated for 2 hours. Two plates were prepared for each treatment condition, one serving as 4 degrees C. no internalization control that was kept on ice during incubation, while the second plate was incubated at 37 degrees C. to allow for energy dependent internalization. Following the incubation period, all plates were placed on ice and washed three times with ice-cold PBS/3% BSA/2 mM EDTA and then lifted with trypsin. Cells were transferred to a 96-well round bottom plates in FACS buffer. Cells were then analyzed by flow cytometry using LSR-HJ with HTS sampler (BD Biosciences, San Jose, CA, USA). Data (mean fluorescence intensities) and further analyzed using Flowjo software (BD Biosciences, San Jose, CA, USA). The internalized fraction was expressed as the difference between the corresponding 4 degrees C. and 37 degrees C. MFIs as previously described.

[2] = system: ASGPR-mediated uptake in HepG2 cells; experiment: Competitive uptake assay with asialofetuin in HepG2; assay type: cell-based, human; details: test compound 0.3 μM; for Cellular uptake with 60 μM asialofetuin: 60 μM asialofetuin (200-fold excess); for Cellular uptake after pre-incubation with asialofetuin: asialofetuin 20 μM and 60 μM
Description: For the competitive uptake assay with the natural ligand of ASGPR (asialofetuin), cells were pre-incubated with 20 μM and 60 μM asialofetuin on ice or at 37 degrees C. for 1.5 hours, followed by the treatment with compounds for additional 2 hours before flow cytometric analysis as described above. The reduction of the uptake under asialofetuin competition was expressed by the percentage against the same treatment condition without asialofetuin.

HepG2 cells = experiment: Confocal imaging of HepG2 cell uptake; assay type: cell-based, human
Description: More particularly, FIG. 11B illustrates cell uptake of GalNAc (positive control), two NNP hits (ASGPR-9-4 and ASGPR-9-6) and a non-hit NNP (KRAS-1-14, negative control) in HepG2 (high ASGPR expressing) verses HEK293 (low ASGPR expressing) cells lines. FIG. 11C illustrates competition uptake assay of GalNAc and two NNP hits (ASGPR-9-4 and ASGPR-9-6) in HepG2 cells after preincubation with different concentrations of asialofetuin (a naturally occurring serum protein ASGPR ligand). Decrease in cell uptake with increasing concentrations of asialofetuin indicates blocking of ASGPR-mediated uptake. FIG. 11D illustrates example confocal images 1113, 1115, 1117, 1119 of HepG2 cell uptake (scale: x20 for the images 1113, 1115, 1117 and x40 for the image 1119). FL=fluorescein label; Cell nucleus staining with DAPI (blue). No uptake with the blank sample (DMSO) is seen at 4 degrees C.

IL-6 = target: T2, IL-6 (Homo sapiens, UniProt P05231); experiment: MST binding affinity of resynthesized NNP hits to IL-6; details: read-out: KD (nM) [95% conf. int], NNP2 library hit, target IL-6, one-site binding model
T2 construct: purchased Creative Biomart IL6-12H
Description: as §1

Compound	Kd (ASGPR) [nM]	Internalization compared with positive control GalNAc [1]	Internalization (cell uptake) in HepG2 [1]	Cellular uptake with 60 μM asialofetuin [2]	Cellular uptake after pre-incubation with asialofetuin [2]	HepG2 cell uptake, confocal images, 4 degrees C. (HepG2 cells)	HepG2 cell uptake, confocal images, 37 degrees C. (HepG2 cells)	Kd (IL-6) [nM]
CC(C)C[C@H](NC(=O)CNC(=O)[C@@H](Cc1c[nH]cn1)NC(=O)[C@@H](CCCNC(=N)N)NC(=O)[C@H]1CCCN1C(=O)Cc1ccc(CNC(=O)[C@H](Cc2ccccc2)NC(=O)[C@@H](CO)NC(=O)[C@@H](CCCNC(=N)N)NC(=O)[C@H]2CCCN2C(=O)CNC(=O)Cc2ccc(CNC(=O)[C@H](CC(C)C)NC(=O)[C@@H](CCCNC(=N)N)NC(=O)[C@@H](CCCCN)NC(=O)[C@@H](CCC(=O)O)NC(=O)[C@@H](Cc3ccccc3)NC(=O)Cc3ccc(CNC(=O)[C@H](Cc4ccccc4)NC(=O)[C@@H](CO)NC(=O)[C@@H](CCC(=O)O)NC(=O)[C@H]4CCCN4C(=O)[C@@H](CC(C)C)NC(=O)c4ccc5c(c4)C(=O)OC54c5ccc(O)cc5Oc5cc(O)ccc54)cc3)cc2)cc1)C(=O)NCc1ccc(CC(=O)N[C@H](CCCNC(=N)N)C(=O)N[C@H](Cc2ccccc2)C(=O)N2CCC[C@@H]2C(=O)N[C@@H](C(=O)NCC(=O)NCc2ccc(CC(=O)N[C@H](CC(C)C)C(=O)N3CCC[C@@H]3C(=O)N[C@H](CCCNC(=N)N)C(=O)N[C@@H](C(=O)NCC(=O)NCc3ccc(CC(N)=O)cc3)[C@H](C)O)cc2)C(C)C)cc1 [ASGPR-9-4] (5FAM-[dL][dP][dE][dS]F[X1][dF][dE][dK][dR]L[X1]G[dP][dR][dS]F[X1][dP][dR][dH]GL[X1][dR][dF][dP][dV]G[X1][dL][dP][dR][dT]G-{NHCH2C6H4(4-CH2CONH2)})	230	significantly higher than uptake of the positive control GalNAc	significantly higher in HepG2 cells compared to in HEK293 cells	mostly abolished	decreased with increasing concentrations of asialofetuin			
CC(C)C[C@H](NC(=O)[C@@H](CCCNC(=N)N)NC(=O)[C@@H](CCCCN)NC(=O)[C@@H](CCC(=O)O)NC(=O)[C@@H](Cc1ccccc1)NC(=O)Cc1ccc(CNC(=O)[C@H](Cc2ccccc2)NC(=O)[C@@H](CO)NC(=O)[C@@H](CCC(=O)O)NC(=O)[C@H]2CCCN2C(=O)[C@@H](CC(C)C)NC(=O)c2ccc3c(c2)C(=O)OC32c3ccc(O)cc3Oc3cc(O)ccc32)cc1)C(=O)NCc1ccc(CC(=O)NCC(=O)N2CCC[C@@H]2C(=O)N[C@H](CCCNC(=N)N)C(=O)N[C@H](CO)C(=O)N[C@@H](Cc2ccccc2)C(=O)NCc2ccc(CC(=O)N[C@H](Cc3ccc(O)cc3)C(=O)N[C@@H](C(=O)N3CCC[C@@H]3C(=O)N[C@H](CCCNC(=N)N)C(=O)N[C@@H](C)C(=O)NCc3ccc(CC(=O)N[C@H](CCCNC(=N)N)C(=O)N[C@H](Cc4ccccc4)C(=O)N4CCC[C@@H]4C(=O)N[C@@H](C(=O)NCC(=O)NCc4ccc(CC(=O)N[C@H](CC(C)C)C(=O)N5CCC[C@@H]5C(=O)N[C@H](CCCNC(=N)N)C(=O)N[C@@H](C(=O)NCC(=O)NCc5ccc(CC(N)=O)cc5)[C@H](C)O)cc4)C(C)C)cc3)[C@H](C)O)cc2)cc1 [ASGPR-9-6] (5FAM-[dL][dP][dE][dS]F[X1][dF][dE][dK][dR]L[X1]G[dP][dR][dS]F[X1][dY][dT][dP][dR]A[X1][dR][dF][dP][dV]G[X1][dL][dP][dR][dT]G-{NHCH2C6H4(4-CH2CONH2)})	34	significantly higher than uptake of the positive control GalNAc	significantly higher in HepG2 cells compared to in HEK293 cells	mostly abolished	decreased with increasing concentrations of asialofetuin	not at 4 °C	intracellular uptake is observed	
CC(C)C[C@H](NC(=O)[C@@H](CCCNC(=N)N)NC(=O)CNC(=O)Cc1ccc(CNC(=O)[C@H](CC(C)C)NC(=O)[C@@H](CC(C)C)NC(=O)[C@@H](Cc2ccc(O)cc2)NC(=O)c2ccc3c(c2)C(=O)OC32c3ccc(O)cc3Oc3cc(O)ccc32)cc1)C(=O)NCc1ccc(CC(=O)N[C@H](CCCNC(=N)N)C(=O)N[C@H](CO)C(=O)N[C@@H](Cc2ccccc2)C(=O)NCc2ccc(CC(=O)N3CCC[C@@H]3C(=O)N[C@H](CCCNC(=N)N)C(=O)N[C@H](C(=O)NCc3ccc(CC(=O)N[C@H](Cc4c[nH]c5ccccc45)C(=O)N[C@H](CCCNC(=N)N)C(=O)N[C@H](C(=O)NCc4ccc(CC(=O)N[C@H](CC(N)=O)C(=O)N[C@H](CCCNC(=N)N)C(=O)N[C@@H](Cc5ccccc5)C(=O)NCc5ccc(CC(=O)N[C@H](CCC(=O)O)C(=O)N[C@H](Cc6ccc(O)cc6)C(=O)N[C@H](C(=O)NCc6ccc(CC(=O)N7CCC[C@@H]7C(=O)N[C@H](CCCNC(=N)N)C(=O)N[C@@H](C)C(=O)NCc7ccc(CC(=O)N[C@H](Cc8ccc(O)cc8)C(=O)N[C@H](CCCNC(=N)N)C(=O)N[C@@H](Cc8ccccc8)C(=O)NCc8ccc(CC(N)=O)cc8)cc7)cc6)C(C)C)cc5)cc4)C(C)C)cc3)C(C)C)cc2)cc1 [IL6-65-11, Fluorescein-(D)Tyr-(D)Leu-(L)Leu-PAM-Gly-(D)Arg-(L)Leu-PAM-(D)Arg-(D)Ser-(L)Phe-PAM-(D)Pro-(D)Arg-(L)Val-PAM-(D)Trp-(D)Arg-(L)Val-PAM-(D)Asn-(D)Arg-(L)Phe-PAM-(D)Glu-(D)Tyr-(L)Val- PAM-(D)Pro-(D)Arg-(L)Ala-PAM-(D)Tyr-(D)Arg-(L)Phe-PAM] (5FAM-[dY][dL]L[X1]G[dR]L[X1][dR][dS]F[X1][dP][dR]V[X1][dW][dR]V[X1][dN][dR]F[X1][dE][dY]V[X1][dP][dR]A[X1][dY][dR]F-{NHCH2C6H4(4-CH2CONH2)})								25
THA-(GalNAc)3-(OH)9-1,3-propanediamine-fluorescein [reference compound]				mostly abolished	decreased with increasing concentrations of asialofetuin	no uptake	is seen at 37 °C	
